The values that follow come from ChEMBL document CHEMBL2311297 (Bioorg Med Chem Lett, 2013).

Each structure is given as a SMILES string. pIC50: −log10 of the molar value. The source made the active and inactive calls. The calls are words filed in the database; no cut-off is given here.

The target in assay [1] is Myc proto-oncogene protein (Homo sapiens, UniProt P01106). The assay is described as follows: Inhibition of recombinant His6-tagged c-Myc bHLH-ZIP domain (353 to 437 amino acid residues) (unknown origin) assessed as disruption of Myc-Max dimerization at 100 uM by electrophoretic mobility shift assay relative to control. (In general: A gel shift assay detects complexes by their altered migration in electrophoresis.)
Chain of Myc proto-oncogene protein (P01106 whole entry, the tested form may be a part): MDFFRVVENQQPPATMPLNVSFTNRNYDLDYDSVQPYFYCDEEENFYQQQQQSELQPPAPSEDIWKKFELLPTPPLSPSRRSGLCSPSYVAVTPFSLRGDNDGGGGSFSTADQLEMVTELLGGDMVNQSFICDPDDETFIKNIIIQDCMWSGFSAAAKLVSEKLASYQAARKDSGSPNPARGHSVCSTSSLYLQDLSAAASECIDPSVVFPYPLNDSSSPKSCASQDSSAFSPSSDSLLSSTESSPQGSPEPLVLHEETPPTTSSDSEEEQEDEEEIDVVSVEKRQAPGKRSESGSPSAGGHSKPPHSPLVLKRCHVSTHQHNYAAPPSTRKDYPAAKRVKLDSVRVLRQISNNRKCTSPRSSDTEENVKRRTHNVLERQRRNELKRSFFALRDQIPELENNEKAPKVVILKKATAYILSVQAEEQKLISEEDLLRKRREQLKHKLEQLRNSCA

Assay [2] has as its system HL-60. The assay is described as follows: Cytotoxicity against human HL60 cells assessed as growth inhibition after 3 to 5 days by MTT assay. In general terms: Formazan colour is commonly taken as a measure of viable cells.
Assay [3] concerns Daudi. The experiment in a line: Cytotoxicity against human Daudi cells assessed as growth inhibition after 3 to 5 days by MTT assay.
Assay [4] is described as follows: Binding affinity to 5'-HEX-tagged double standard 22 bp 5'-hexachlorofluoresceine-CACCCGGTCACGTGGCCTACAC-3' (unknown origin) by PAGE analysis.
Assay [5] concerns the target Protein max (Homo sapiens, UniProt P61244). The assay is described as follows: Inhibition of His6-tagged Max (151 amino acid residues) (unknown origin) assessed as disruption of Max-Max dimerization by electrophoretic mobility shift assay.

Chain of Protein max (P61244 whole entry): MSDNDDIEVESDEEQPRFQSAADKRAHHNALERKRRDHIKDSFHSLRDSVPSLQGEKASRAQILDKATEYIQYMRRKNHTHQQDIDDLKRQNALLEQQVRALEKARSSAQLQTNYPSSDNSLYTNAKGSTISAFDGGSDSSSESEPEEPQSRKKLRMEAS

One may read the inhibition as the percentage by which the read-out fell short of the control. Regarding `O=C(O)c1ccccc1Nc1ccc([N+](=O)[O-])c2nonc12`, the inhibition in assay [1] was found to be 8%.

As for `O=C(O)COCC(=O)Nc1ccc(Nc2ccccc2-c2ccccc2)c2nonc12`, in assay [1], the inhibition came out at 33%.

As to `O=[N+]([O-])c1ccc(Oc2ccccc2-c2ccccc2)c2nonc12`, the inhibition in assay [1] turned out to be 36%.

In the case of `O=[N+]([O-])c1ccc(Nc2ccc(-c3ccccc3)cc2)c2nonc12`, the inhibition in assay [1] turned out to be 28%.

For `O=C(Nc1ccc(Nc2ccccc2-c2ccccc2)c2nonc12)C(F)(F)F`, in assay [1], the inhibition was determined as 25%.

As to `O=[N+]([O-])c1ccc(Nc2ccccc2)c2nonc12`, the inhibition in assay [1] is 2%.

In the case of `COC(=O)Nc1ccc(Nc2ccccc2-c2ccccc2)c2nonc12`, in assay [1], the inhibition was 0%.

For `O=[N+]([O-])c1ccc(Nc2ccccc2O)c2nonc12`, the inhibition in assay [1] amounted to 13%.

For `CC(=O)Nc1ccc(Nc2ccccc2-c2ccccc2)c2nonc12`, the inhibition in assay [1] was 2%.

In the case of `O=[N+]([O-])c1ccc(Nc2ccccc2-c2ccccc2)cc1`, in assay [1], the inhibition is 0%.

As for `O=[N+]([O-])c1ccc(N2CCCCC2)c2nonc12`, in assay [1], the inhibition came out at 10%.

Regarding `O=C(O)c1cccc(Nc2ccc([N+](=O)[O-])c3nonc23)c1`, the inhibition in assay [1] amounted to 0%.

As to `O=[N+]([O-])c1ccc(NCc2ccccc2)c2nonc12`, the inhibition in assay [1] turned out to be 0%.

For `Cc1ccccc1Nc1ccc([N+](=O)[O-])c2nonc12`, in assay [1], the inhibition is 11%.

`O=C(O)CCC(=O)Nc1ccc(Nc2ccccc2-c2ccccc2)c2nonc12`: the inhibition in assay [1] came out at 17%.

A word on the pIC50: it is the IC50 on a negative log10 scale, so that one unit is a factor of ten. Regarding `O=[N+]([O-])c1ccc(Nc2ccccc2-c2ccccc2)c2nonc12`, the results for the pIC50 in assay [2] and in assay [3] were 4.52 and 5.00, respectively. The inhibition in assay [1] worked out at 38%.

On to `Cc1ccc(Nc2ccc([N+](=O)[O-])c3nonc23)cc1`, for which the inhibition in assay [1] is 0%.

With `O=[N+]([O-])c1ccc(Nc2ccccc2Br)c2nonc12`, the inhibition in assay [1] was found to be 39%.

As to `O=[N+]([O-])c1ccc(NC2CCCCC2)c2nonc12`, the inhibition in assay [1] worked out at 11%.

Take `O=[N+]([O-])c1ccc(Nc2cccc(-c3ccccc3)c2)c2nonc12`: the inhibition in assay [1] stood at 20%.

As for `COc1ccccc1Nc1ccc([N+](=O)[O-])c2nonc12`, in assay [1], the inhibition was found to be 0%.

For `O=C(O)c1ccc(Nc2ccc([N+](=O)[O-])c3nonc23)cc1`, the results for the pIC50 in assay [2], in assay [3] and in assay [5] were 3.74, 4.25 and below 4.00, respectively. Also, the inhibition in assay [1] worked out at 93%. Also, the result in assay [4] was inactive.
